*1 amine or outer side, *2 acyl side, *3 side chain or, on linkers, in order; H or OH if unused. Where a SMILES comes first, the peptide text is derived from it. Bridges are numbered along the chain shown (N, C = ends). Side-chain parts run from the residue outwards. [ ]: non-standard residue; d: D form. The star is where a group is joined. X3 = O=C([C@@H](Cc1ccc(NCCN2CCOCC2)cc1)N[*:1])[*:2]; dPhe(4-CH2NH2) = NCc1ccc(C[C@@H](N)C(=O)O)cc1; dPhe(4-NH2) = Nc1ccc(C[C@@H](N)C(=O)O)cc1; Phe(4-Cl) = N[C@@H](Cc1ccc(Cl)cc1)C(=O)O; d(hCit) = NC(=O)NCCCC[C@@H](N)C(=O)O; Ethyl(2-morpholino) = C1CN(CC*)CCO1; Cit = NC(=O)NCCC[C@H](N)C(=O)O; Nicotinoyl = O=C(c1cccnc1)*
Experiments:
[1] = target: somatostatin type 2 (SSTR2) receptors (Homo sapiens, UniProt P30874); test: PathHunter β-Arrestin assay, antagonist mode, SSTR2; type: cell-based; settings: agonist challenge at EC80
Outline: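 Cells co-expressing PK-tagged human receptor and EA-β-Arrestin were pre-incubated with compound, then challenged with agonist at EC80. β-Gal complementation read by chemiluminescence; % inhibition normalized to EC80 and vehicle controls at 10 concentrations (log 3 steps from 1 μM down to 5e-5 μM), fitted for IC50.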

SSTR3 = SSTR3 (Homo sapiens, UniProt P32745); test: PathHunter β-Arrestin assay, antagonist mode, SSTR3; type: cell-based; settings: agonist challenge at EC80
Experimental: The PathHunter® β-Arrestin assay monitors the activation of a GPCR in a homogenous, non-imaging assay format using a technology developed by DiscoveRx called Enzyme Fragment Complementation (EFC) with β-galactosidase (β-Gal) as the functional reporter. […] EA is fused to β-Arrestin and […] is fused to the GPCR of interest. When the GPCR is activated and β-Arrestin is recruited to the receptor, ED and EA complementation occurs, restoring β-Gal activity which is measured using chemiluminescent PathHunter® Detection Reagents. For antagonist determination, cells were pre-incubated with the compounds followed by agonist challenge at the EC80 concentration. Data was normalized to the maximal and minimal response observed in the presence of EC80 ligand and vehicle. Compound activity was analyzed using CBIS data analysis suite ChemInnovation, CA). Percentage inhibition was calculated using the following formula: % Inhibition=100%×(1−(mean signal of test sample-mean signal of vehicle control)/(mean signal of EC80 control-mean signal of vehicle control)). Percentage inhibition was calculated at 10 concentrations in steps on a Log 3 scale ranging from […] to 5e-5 μM. The results were plotted for IC50 calculation.

Sequence of SSTR3 (P32745 whole entry, the tested form may be a part): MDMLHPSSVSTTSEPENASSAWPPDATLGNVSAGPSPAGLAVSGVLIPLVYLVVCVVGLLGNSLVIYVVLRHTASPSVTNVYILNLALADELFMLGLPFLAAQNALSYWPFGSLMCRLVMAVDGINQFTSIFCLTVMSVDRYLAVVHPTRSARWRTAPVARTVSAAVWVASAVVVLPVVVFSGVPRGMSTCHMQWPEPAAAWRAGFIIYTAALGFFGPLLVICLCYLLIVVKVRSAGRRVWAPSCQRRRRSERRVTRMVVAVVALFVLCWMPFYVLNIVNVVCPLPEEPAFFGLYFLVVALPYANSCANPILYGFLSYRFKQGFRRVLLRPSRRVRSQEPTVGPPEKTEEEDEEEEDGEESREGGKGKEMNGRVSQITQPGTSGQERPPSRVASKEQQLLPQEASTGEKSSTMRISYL
Sequence of somatostatin type 2 (SSTR2) receptors (P30874 whole entry): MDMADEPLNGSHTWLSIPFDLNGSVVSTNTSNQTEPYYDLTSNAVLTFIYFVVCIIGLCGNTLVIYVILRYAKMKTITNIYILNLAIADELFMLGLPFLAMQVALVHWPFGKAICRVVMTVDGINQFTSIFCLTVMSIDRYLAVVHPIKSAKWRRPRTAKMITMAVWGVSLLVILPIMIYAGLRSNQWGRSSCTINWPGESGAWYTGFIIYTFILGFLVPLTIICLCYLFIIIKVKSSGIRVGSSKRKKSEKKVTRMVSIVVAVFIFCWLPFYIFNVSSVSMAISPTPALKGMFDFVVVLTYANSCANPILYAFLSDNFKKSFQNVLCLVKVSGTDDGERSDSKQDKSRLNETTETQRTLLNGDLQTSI

`C[C@@H](O)[C@@H]1NC(=O)[C@H](CCCCN)NC(=O)[C@@H](CCCCNC(N)=O)NC(=O)[C@H](Cc2ccc(O)cc2)NC(=O)[C@H](NC(=O)[C@@H](N)Cc2ccc(Cl)cc2)CSSC[C@@H](C(=O)N[C@H](Cc2ccc(O)cc2)C(N)=O)NC1=O` [Compound 2, H-Cpa-cyclo[DCys- Tyr-DHoCit-Lys- Thr-Cys]- DTyr-NH2] (H-[Phe(4-Cl)][dC]Y[d(hCit)]KTC[dY]-NH2; disulfide 2-7) was tested, and the IC50 [1] was 181 nM and the IC50 (SSTR3) was > 1000 nM.

`C[C@@H](O)[C@@H]1NC(=O)[C@H](CCCCN)NC(=O)[C@@H](CCCCNC(=O)c2cccnc2)NC(=O)[C@H](Cc2ccc(O)cc2)NC(=O)[C@H](NC(=O)[C@@H](N)Cc2ccc(Cl)cc2)CSSC[C@@H](C(=O)N[C@H](Cc2ccc(O)cc2)C(N)=O)NC1=O` [Compound 3, H-Cpa-cyclo[DCys- Tyr-D-(N^ϵ- nicotinoyl)Lys-Lys- Thr-Cys]-DTyr-NH2] (H-[Phe(4-Cl)][dC]Y[dK](Nicotinoyl)KTC[dY]-NH2; disulfide 2-7) was tested, and the IC50 [1] was 251 nM and the IC50 (SSTR3) was > 1000 nM.

`C[C@@H](O)[C@@H]1NC(=O)[C@H](CCCCN)NC(=O)[C@@H](Cc2ccc(CN)cc2)NC(=O)[C@H](Cc2ccc(O)cc2)NC(=O)[C@H](NC(=O)[C@@H](N)Cc2ccc(Cl)cc2)CSSC[C@@H](C(=O)N[C@H](Cc2ccc(O)cc2)C(N)=O)NC1=O` [Compound 5, H-Cpa-cyclo[DCys- Tyr-D-(4-aminomethyl)Phe- Lys-Thr-Cys]- DTyr-NH2] (H-[Phe(4-Cl)][dC]Y[dPhe(4-CH2NH2)]KTC[dY]-NH2; disulfide 2-7) was tested, and the IC50 [1] was 213 nM and the IC50 (SSTR3) was > 1000 nM.

`CC(=O)NCc1ccc(C[C@H]2NC(=O)[C@H](Cc3ccc(O)cc3)NC(=O)[C@H](NC(=O)[C@@H](N)Cc3ccc(Cl)cc3)CSSC[C@@H](C(=O)N[C@H](Cc3ccc(O)cc3)C(N)=O)NC(=O)[C@H]([C@@H](C)O)NC(=O)[C@H](CCCCN)NC2=O)cc1` [Compound 6, H-Cpa-cyclo[DCys- Tyr-D-(4- acetamido- methyl)Phe- Lys-Thr-Cys]-DTyr- NH2] (H-[Phe(4-Cl)][dC]Y[dPhe(4-CH2NH2)](Ac)KTC[dY]-NH2; disulfide 2-7) was tested, and the IC50 [1] was 166 nM and the IC50 (SSTR3) was > 1000 nM.

With `C[C@@H](O)[C@@H]1NC(=O)[C@H](CCCCN)NC(=O)[C@@H](Cc2ccc(NC(=O)CN)cc2)NC(=O)[C@H](Cc2ccc(O)cc2)NC(=O)[C@H](NC(=O)[C@@H](N)Cc2ccc(Cl)cc2)CSSC[C@@H](C(=O)N[C@H](Cc2ccc(O)cc2)C(N)=O)NC1=O` [Compound 8, H-Cpa-cyclo[DCys- Tyr-D-4-(Gly) Aph-Lys- Thr-Cys]-DTyr-NH2] (H-[Phe(4-Cl)][dC]Y[dPhe(4-NH2)](Gly)KTC[dY]-NH2; disulfide 2-7) the IC50 [1] was 84 nM and the IC50 (SSTR3) was > 1000 nM.

For `CC(=O)NCC(=O)Nc1ccc(C[C@H]2NC(=O)[C@H](Cc3ccc(O)cc3)NC(=O)[C@H](NC(=O)[C@@H](N)Cc3ccc(Cl)cc3)CSSC[C@@H](C(=O)N[C@H](Cc3ccc(O)cc3)C(N)=O)NC(=O)[C@H]([C@@H](C)O)NC(=O)[C@H](CCCCN)NC2=O)cc1` [Compound 9, H-Cpa-cyclo[DCys- Tyr-D-4-(Gly- Ac)Aph- Lys-Thr-Cys]- DTyr-NH2] (H-[Phe(4-Cl)][dC]Y[dPhe(4-NH2)]([Gly-Ac])KTC[dY]-NH2; disulfide 2-7), the IC50 [1] was 104 nM and the IC50 (SSTR3) was > 1000 nM.

`C[C@@H](O)[C@@H]1NC(=O)[C@H](CCCCN)NC(=O)[C@@H](Cc2ccc(NC(=O)[C@@H]3CCCN3)cc2)NC(=O)[C@H](Cc2ccc(O)cc2)NC(=O)[C@H](NC(=O)[C@@H](N)Cc2ccc(Cl)cc2)CSSC[C@@H](C(=O)N[C@H](Cc2ccc(O)cc2)C(N)=O)NC1=O` [Compound 10, H-Cpa-cyclo[DCys- Tyr-D-4-(Pro) Aph-Lys- Thr-Cys]- DTyr-NH2] (H-[Phe(4-Cl)][dC]Y[dPhe(4-NH2)](Pro)KTC[dY]-NH2; disulfide 2-7) was tested, and the IC50 [1] was > 1000 nM and the IC50 (SSTR3) was > 1000 nM.

With `C[C@@H](O)[C@@H]1NC(=O)[C@H](CCCCN)NC(=O)[C@@H](Cc2ccc(NCCN3CCOCC3)cc2)NC(=O)[C@H](Cc2ccc(O)cc2)NC(=O)[C@H](NC(=O)[C@@H](N)Cc2ccc(Cl)cc2)CSSC[C@@H](C(=O)N[C@H](Cc2ccc(O)cc2)C(N)=O)NC1=O` [Compound 11, H-Cpa-cyclo [DCys-Tyr- D-4-(2-(4- morpholinyl) ethyl)Aph- Lys-Thr-Cys]- DTyr-NH2] (H-[Phe(4-Cl)][dC]Y[X3]KTC[dY]-NH2; disulfide 2-7) the IC50 [1] was 243 nM and the IC50 (SSTR3) was > 1000 nM.

With `C[C@@H](O)[C@@H]1NC(=O)[C@H](CCCCN)NC(=O)[C@@H](Cc2ccc(OCCN3CCOCC3)cc2)NC(=O)[C@H](Cc2ccc(O)cc2)NC(=O)[C@H](NC(=O)[C@@H](N)Cc2ccc(Cl)cc2)CSSC[C@@H](C(=O)N[C@H](Cc2ccc(O)cc2)C(N)=O)NC1=O` [Compound 13, H-Cpa-cyclo[DCys- Tyr-D-(2-(4- morpholinyl)ethyl) Tyr-Lys-Thr- Cys]-DTyr-NH2] (H-[Phe(4-Cl)][dC]Y[dY](Ethyl(2-morpholino))KTC[dY]-NH2; disulfide 2-7) the IC50 [1] was 334 nM and the IC50 (SSTR3) was > 1000 nM.

In the case of `C[C@@H](O)[C@@H]1NC(=O)[C@H](CCCCN)NC(=O)[C@@H](Cc2ccc(NC(=O)[C@@H](N)CO)cc2)NC(=O)[C@H](Cc2ccc(O)cc2)NC(=O)[C@H](NC(=O)[C@@H](N)Cc2ccc(Cl)cc2)CSSC[C@@H](C(=O)N[C@H](Cc2ccc(O)cc2)C(N)=O)NC1=O` [Compound 16, H-Cpa-cyclo[DCys- Tyr-D-4-(Ser) Aph-Lys-Thr- Cys]-DTyr-NH2] (H-[Phe(4-Cl)][dC]Y[dPhe(4-NH2)](Ser)KTC[dY]-NH2; disulfide 2-7), the IC50 [1] is reported as 234 nM and the IC50 (SSTR3) is reported as > 1000 nM.

For `C[C@@H](O)[C@@H]1NC(=O)[C@H](CCCCN)NC(=O)[C@@H](Cc2ccc(NC(=O)[C@@H](N)CCCCN)cc2)NC(=O)[C@H](Cc2ccc(O)cc2)NC(=O)[C@H](NC(=O)[C@@H](N)Cc2ccc(Cl)cc2)CSSC[C@@H](C(=O)N[C@H](Cc2ccc(O)cc2)C(N)=O)NC1=O` [Compound 17, H-Cpa-cyclo[DCys- Tyr-D-4-(Lys) Aph-Lys-Thr- Cys]-DTyr-NH2] (H-[Phe(4-Cl)][dC]Y[dPhe(4-NH2)](Lys)KTC[dY]-NH2; disulfide 2-7), the IC50 [1] was > 1000 nM and the IC50 (SSTR3) was > 1000 nM.

In the case of `C[C@@H](O)[C@@H]1NC(=O)[C@H](CCCCN)NC(=O)[C@@H](Cc2ccc(NC(=O)[C@@H](N)CC(=O)O)cc2)NC(=O)[C@H](Cc2ccc(O)cc2)NC(=O)[C@H](NC(=O)[C@@H](N)Cc2ccc(Cl)cc2)CSSC[C@@H](C(=O)N[C@H](Cc2ccc(O)cc2)C(N)=O)NC1=O` [Compound 18, H-Cpa-cyclo[DCys- Tyr-D-4-(Asp) Aph-Lys-Thr- Cys]-DTyr-NH2] (H-[Phe(4-Cl)][dC]Y[dPhe(4-NH2)](Asp)KTC[dY]-NH2; disulfide 2-7), the IC50 [1] is reported as > 1000 nM and the IC50 (SSTR3) is reported as > 1000 nM.

`C[C@@H](O)[C@@H]1NC(=O)[C@H](CCCCN)NC(=O)[C@@H](Cc2ccc(NC(=O)[C@@H](N)CC(N)=O)cc2)NC(=O)[C@H](Cc2ccc(O)cc2)NC(=O)[C@H](NC(=O)[C@@H](N)Cc2ccc(Cl)cc2)CSSC[C@@H](C(=O)N[C@H](Cc2ccc(O)cc2)C(N)=O)NC1=O` [Compound 19, H-Cpa-cyclo[DCys- Tyr-D-4-(Asn) Aph-Lys-Thr- Cys]-DTyr-NH2] (H-[Phe(4-Cl)][dC]Y[dPhe(4-NH2)](Asn)KTC[dY]-NH2; disulfide 2-7) was tested, and the IC50 [1] was > 1000 nM and the IC50 (SSTR3) was > 1000 nM.

For `C[C@@H](O)[C@@H]1NC(=O)[C@H](CCCCN)NC(=O)[C@@H](Cc2ccc(NC(=O)[C@@H](N)CCC(=O)O)cc2)NC(=O)[C@H](Cc2ccc(O)cc2)NC(=O)[C@H](NC(=O)[C@@H](N)Cc2ccc(Cl)cc2)CSSC[C@@H](C(=O)N[C@H](Cc2ccc(O)cc2)C(N)=O)NC1=O` [Compound 20, H-Cpa-cyclo[DCys- Tyr-D-4-(Glu)Aph- Lys-Thr-Cys]- DTyr-NH2] (H-[Phe(4-Cl)][dC]Y[dPhe(4-NH2)](Glu)KTC[dY]-NH2; disulfide 2-7), the IC50 [1] was 924 nM and the IC50 (SSTR3) was > 1000 nM.

With `C[C@@H](O)[C@@H]1NC(=O)[C@H](CCCCN)NC(=O)[C@@H](Cc2ccc(NC(=O)[C@@H](N)CCC(N)=O)cc2)NC(=O)[C@H](Cc2ccc(O)cc2)NC(=O)[C@H](NC(=O)[C@@H](N)Cc2ccc(Cl)cc2)CSSC[C@@H](C(=O)N[C@H](Cc2ccc(O)cc2)C(N)=O)NC1=O` [Compound 21, H-Cpa-cyclo[DCys- Tyr-D-4-(Gln)Aph- Lys-Thr-Cys]- DTyr-NH2] (H-[Phe(4-Cl)][dC]Y[dPhe(4-NH2)](Gln)KTC[dY]-NH2; disulfide 2-7) the IC50 [1] was > 1000 nM and the IC50 (SSTR3) was > 1000 nM.

With `C[C@@H](O)[C@@H]1NC(=O)[C@H](CCCCN)NC(=O)[C@@H](Cc2ccc(NC(=O)[C@@H](N)CCCNC(N)=O)cc2)NC(=O)[C@H](Cc2ccc(O)cc2)NC(=O)[C@H](NC(=O)[C@@H](N)Cc2ccc(Cl)cc2)CSSC[C@@H](C(=O)N[C@H](Cc2ccc(O)cc2)C(N)=O)NC1=O` [Compound 22, H-Cpa-cyclo[DCys- Tyr-D-4-(Cit)Aph- Lys-Thr-Cys]- DTyr-NH2] (H-[Phe(4-Cl)][dC]Y[dPhe(4-NH2)](Cit)KTC[dY]-NH2; disulfide 2-7) the IC50 [1] was 417 nM and the IC50 (SSTR3) was > 1000 nM.

From patent US12486302B2, “Somatostatin receptor antagonist compounds and methods of using the same” (CDRD VENTURES INC., priority 2016, dated 2025)
